Patent US20110154874A1, “MIXTURE FOR THE TREATMENT OF UREA-CONTAINING FERTILIZERS” (FERTIVA GmbH, priority 2007, published 2011)
Values joined by “and” are separate entries in the source; they are usually repeats but may differ in a detail not shown here. Equal values may be shown once.

Tests used:
[1] = tested on: Chinese cabbage; conditions: in vivo
[2] = Storage test over 30 days, NBPT loss on treated granulated urea (HPLC analysis); format: physicochemical; conditions: active compound applied to urea
Description: In a further storage test over 30 days at 30° C. and an atmospheric humidity of 60%, the NBPT losses measured (HPLC analysis) were as indicated below. At the beginning of the storage test, the NBPT was applied in a concentration of 0.12% by weight, based on the fertilizer, in a solution having the composition indicated below. The carrier fertilizer used was granulated urea.

| Structure (SMILES) | Fresh mass of shoots 21 days after planting [1] | stabilizing action on the active compound [2] |
| --- | --- | --- |
| NC(N)=O [Urea] | 14.3 g/pot and 20.05 g/pot and 11.65 g/pot | – |
| CN1CCCC1=O [N-methylpyrrolidone (NMP), N-methylpyrrolidone] | – | no stabilizing action |
